Data taken from ChEMBL document CHEMBL4033631, “Discovery of benzothiazole derivatives as novel non-sulfamide NEDD8 activating enzyme inhibitors by target-based virtual screening” (Eur J Med Chem, 2017).
pIC50: −log10 of the molar value.

What was measured:
U2OS = experiment: Antitumor activity against human U2OS cells after 72 hrs by MTT assay; type: functional, cell-based
HCT-116 = experiment: Antitumor activity against human HCT116 cells after 72 hrs by MTT assay; type: functional, cell-based; conditions: HCT-116, 72 h
Homo sapiens [1] = species: Homo sapiens; experiment: Inhibition of NAE in human HCT116 cells assessed as decrease in NEDD8-UBC12 complex formation after 4 hrs by Western blot analysis; type: cell-based
Homo sapiens [2] = species: Homo sapiens; experiment: Inhibition of NAE in human HCT116 cells assessed as decrease in NEDD8 level after 4 hrs by Western blot analysis; type: cell-based

Cc1nc(Nc2nc3ccccc3o2)nc(C)c1C(=O)Nc1ccc(F)cc1
pIC50 (U2OS): 4.10 | pIC50 (HCT-116): 4.81

Cc1ccc(S(=O)(=O)Nc2nc(C)c(NC(=O)Nc3ccc(Cl)cc3)s2)cc1
pIC50 (U2OS): 4.05 | pIC50 (HCT-116): 4.32

NS(=O)(=O)OC[C@@H]1C[C@@H](n2ccc3c(N[C@H]4CCc5ccccc54)ncnc32)C[C@@H]1O [PEVONEDISTAT]
pIC50 (U2OS): 6.80 | pIC50 (HCT-116): 6.72

O=C(CSc1cccc(O)c1)Nc1ccc2nc(NC(=O)c3cc(Cl)cc(Cl)c3)sc2c1
pIC50 (U2OS): 5.82 | pIC50 (HCT-116): 5.26

O=C(CSc1ncccn1)Nc1ccc2nc(NC(=O)c3ccc(C(F)(F)F)cc3)sc2c1
pIC50 (U2OS): 4.55 | pIC50 (HCT-116): 5.65

COc1cc(CNC(C)(C)CO)ccc1OCC(=O)Nc1ccc(C)cc1
pIC50 (U2OS): < 4.00 | pIC50 (HCT-116): < 4.00

O=C(CSc1cccc(O)c1)Nc1ccc2nc(NC(=O)c3ccc(C(F)(F)F)cc3)sc2c1
inhibition (Homo sapiens [1]): Dose-dependent effect | inhibition (Homo sapiens [2]): Dose-dependent effect | pIC50 (U2OS): 6.20 | pIC50 (HCT-116): 6.29

Oc1ccc(Cl)cc1/C=N/c1ccc(-c2nc3ccccc3o2)c(O)c1
pIC50 (U2OS): 4.66 | pIC50 (HCT-116): 4.70

O=C(CSc1ncccc1C(=O)O)Nc1ccc2nc(NC(=O)c3ccc(C(F)(F)F)cc3)sc2c1
pIC50 (U2OS): 4.87 | pIC50 (HCT-116): 5.64

O=C(Cn1cc(F)c(=O)n(CC(=O)Nc2ccc(Br)cn2)c1=O)Nc1ccc(Br)cn1
pIC50 (U2OS): 5.29 | pIC50 (HCT-116): 4.95

O=C(CSc1cccc(O)c1)Nc1ccc2nc(NC(=O)c3cccs3)sc2c1
pIC50 (U2OS): 4.20 | pIC50 (HCT-116): 5.15

O=C(CSc1ccc(Cl)cc1)Nc1ccc2nc(NC(=O)c3ccc(F)cc3)sc2c1
pIC50 (U2OS): 5.60 | pIC50 (HCT-116): 5.87

O=C(CSC1CCCCC1)Nc1ccc2nc(NC(=O)c3ccc(C(F)(F)F)cc3)sc2c1
pIC50 (U2OS): 4.91 | pIC50 (HCT-116): 4.68

O=C(CSc1cccc(O)c1)Nc1ccc2nc(NC(=O)c3ccc(F)cc3)sc2c1
pIC50 (U2OS): 5.29 | pIC50 (HCT-116): 5.21

Cc1cc(C)cc(C(=O)Nc2nc3ccc(NC(=O)CSc4cccc(O)c4)cc3s2)c1
pIC50 (U2OS): 5.55 | pIC50 (HCT-116): 5.29

CCCC(=O)Nc1nc2ccc(NC(=O)CSc3cccc(O)c3)cc2s1
pIC50 (U2OS): 4.99 | pIC50 (HCT-116): 4.98

O=C(CSc1ccc(Cl)cc1)Nc1ccc2nc(NC(=O)c3ccc(C(F)(F)F)cc3)sc2c1
pIC50 (U2OS): 5.54 | pIC50 (HCT-116): 6.03

Cn1c(CNC(=O)c2cccs2)nnc1SCC(=O)Nc1cccc(Cl)c1
pIC50 (U2OS): < 4.00 | pIC50 (HCT-116): < 4.00

Nc1ccc(SCC(=O)Nc2ccc3nc(NC(=O)c4ccc(C(F)(F)F)cc4)sc3c2)cc1
inhibition (Homo sapiens [1]): Dose-dependent effect | inhibition (Homo sapiens [2]): Dose-dependent effect | pIC50 (U2OS): 5.91 | pIC50 (HCT-116): 7.00

O=C(CSc1ccc2ccccc2c1)Nc1ccc2nc(NC(=O)c3ccc(C(F)(F)F)cc3)sc2c1
inhibition (Homo sapiens [1]): Dose-dependent effect | inhibition (Homo sapiens [2]): Dose-dependent effect | pIC50 (U2OS): 5.40 | pIC50 (HCT-116): 6.52

COc1ccc(C(=O)Nc2nnc(SCC(=O)Nc3ccc(Br)cc3)s2)cc1OC
pIC50 (U2OS): < 4.00 | pIC50 (HCT-116): 4.18

O=C(Cc1nnc(NC(=O)c2ccc(Cl)cc2)s1)N/N=C/c1ccc(O)cc1O
pIC50 (U2OS): 4.39 | pIC50 (HCT-116): 4.42

CC(O)c1cccc(NC(=O)c2cc(Br)ccc2Br)c1 (configuration not stated)
pIC50 (U2OS): < 4.00 | pIC50 (HCT-116): < 4.00

O=C(CSc1cccc(O)c1)Nc1ccc2nc(NC(=O)c3ccccc3)sc2c1
pIC50 (U2OS): < 4.00 | pIC50 (HCT-116): 4.39

Cc1ccc(SCC(=O)Nc2ccc3nc(NC(=O)c4ccc(C(F)(F)F)cc4)sc3c2)c(C)c1
pIC50 (U2OS): 6.00 | pIC50 (HCT-116): 6.49

O=C(CSc1cccc(O)c1)Nc1ccc2nc(NC(=O)c3ccc4ccccc4c3)sc2c1
pIC50 (U2OS): 5.75 | pIC50 (HCT-116): 5.37

O=C(CSc1ncc[nH]1)Nc1ccc2nc(NC(=O)c3ccc(C(F)(F)F)cc3)sc2c1
pIC50 (U2OS): 4.73 | pIC50 (HCT-116): 5.57

O=C(CSc1ccc(Cl)cc1)Nc1ccc2nc(NC(=O)c3ccc4ccccc4c3)sc2c1
pIC50 (U2OS): 4.84 | pIC50 (HCT-116): 5.39

Cn1c(CNC(=O)c2cccs2)nnc1SCC(=O)Nc1ccc(Cl)cc1
pIC50 (U2OS): < 4.00 | pIC50 (HCT-116): 4.04

CCn1c(CNc2ccc(OC)cc2)nnc1SCC(=O)Nc1ccc(Cl)cc1
pIC50 (U2OS): 4.20 | pIC50 (HCT-116): 4.40

CCCC(=O)Nc1nc2ccc(NC(=O)CSc3ccc(Cl)cc3)cc2s1
pIC50 (U2OS): 5.50 | pIC50 (HCT-116): 5.67

O=C(CSc1nnc(NC(=O)COc2ccccc2)s1)Nc1ccc(Br)cc1
pIC50 (U2OS): < 4.00 | pIC50 (HCT-116): < 4.00

Cc1ccc(C(=O)Nc2nc3ccc(NC(=O)CSc4cccc(O)c4)cc3s2)cc1
pIC50 (U2OS): 4.91 | pIC50 (HCT-116): 5.11

Cc1ccc(C(=O)Nc2nc3ccc(NC(=O)CSc4ccc(Cl)cc4)cc3s2)cc1
pIC50 (U2OS): 5.50 | pIC50 (HCT-116): 5.67

O=C(CSc1nc2ccccc2[nH]1)Nc1ccc2nc(NC(=O)c3ccc(C(F)(F)F)cc3)sc2c1
pIC50 (U2OS): 5.15 | pIC50 (HCT-116): 5.42

O=C(Cc1nnc(NC(=O)c2ccc(Cl)cc2)s1)N/N=C/c1ccc(O)cc1
pIC50 (U2OS): < 4.00 | pIC50 (HCT-116): 4.17

Cc1cc(C)cc(C(=O)Nc2nc3ccc(NC(=O)CSc4ccc(Cl)cc4)cc3s2)c1
pIC50 (U2OS): < 4.00 | pIC50 (HCT-116): 4.19

COc1ccc(/C=N/NC(=O)c2ccc(NC(=O)c3ccccc3Br)cc2)cc1
pIC50 (U2OS): 4.03 | pIC50 (HCT-116): < 4.00
